Results on one molecule are retold here after ChEMBL document CHEMBL5696441 (Nat Chem Biol, 2011).

In data set [1] the target is Mitogen-activated protein kinase kinase kinase 5 (Homo sapiens) (UniProt Q99683). Kind of data set: Inhibition of ASK1 (unknown origin) assessed as remaining activity at 1 uM by Kinome scan method relative to control.
Data set [2] has as its target Receptor-type tyrosine-protein kinase FLT3 (Homo sapiens) (UniProt P36888). The data set can be described thus: Inhibition of human FLT3 assessed as residual activity at 1 uM using Poly(Ala,Glu,Lys,Tyr)6:2:5:1 as substrate in presence of 33P-ATP by ProQinase assay relative to control.
Data set [3] has as its target Tyrosine-protein kinase ABL2 (Homo sapiens) (UniProt P42684). Kind of data set: Inhibition of ABL2 (unknown origin) assessed as remaining activity at 1 uM by Kinome scan method relative to control.
Data set [4] concerns the target CDK9/cyclin T1 (Homo sapiens) (UniProt O60563+P50750). Kind of data set: Inhibition of human CDK9/CyclinT1 assessed as residual activity at 1 uM using RBER-CHKtide as substrate in presence of 33P-ATP by ProQinase assay relative to control. The format is protein-complex assay.
For data set [5], the target named is T1, Myotonin-protein kinase (Homo sapiens) (UniProt Q09013).
T1 sequence (whole entry): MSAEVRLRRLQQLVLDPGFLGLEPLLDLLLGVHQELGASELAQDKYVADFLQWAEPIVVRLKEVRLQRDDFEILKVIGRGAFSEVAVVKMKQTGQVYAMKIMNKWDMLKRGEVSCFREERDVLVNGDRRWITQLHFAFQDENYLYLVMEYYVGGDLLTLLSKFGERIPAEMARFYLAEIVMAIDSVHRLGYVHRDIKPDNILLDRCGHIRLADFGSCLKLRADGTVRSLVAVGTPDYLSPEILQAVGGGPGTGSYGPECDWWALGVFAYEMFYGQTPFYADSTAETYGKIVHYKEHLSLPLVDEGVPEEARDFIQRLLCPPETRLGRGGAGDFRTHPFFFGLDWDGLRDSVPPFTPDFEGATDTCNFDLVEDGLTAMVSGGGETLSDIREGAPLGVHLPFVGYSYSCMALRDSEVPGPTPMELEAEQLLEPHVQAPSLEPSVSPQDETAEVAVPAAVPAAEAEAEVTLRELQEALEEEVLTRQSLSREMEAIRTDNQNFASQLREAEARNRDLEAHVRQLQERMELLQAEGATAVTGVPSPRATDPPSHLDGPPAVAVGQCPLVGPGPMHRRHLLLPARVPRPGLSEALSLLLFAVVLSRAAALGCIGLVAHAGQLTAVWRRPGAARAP
Kind of data set: Inhibition of human DMPK assessed as residual activity at 1 uM using RBER-CHKtide as substrate in presence of 33P-ATP by ProQinase assay relative to control.

Data set [6] has as its target Eukaryotic translation initiation factor 2-alpha kinase 1 (Homo sapiens) (UniProt Q9BQI3). The data set can be described thus: Inhibition of human HRI assessed as residual activity at 1 uM using casein as substrate in presence of 33P-ATP by ProQinase assay relative to control.
Data set [7] relates to Leucine-rich repeat serine/threonine-protein kinase 2 (Homo sapiens), Q5S007 [G2019S]. Kind of data set: Inhibition of human LRRK2 G2019S mutant assessed as residual activity at 1 uM using RBER-GSK3(14-27) as substrate in presence of 33P-ATP by ProQinase assay relative to control.
The nature of data set [8]: Anti-inflammatory activity against human derived high respond PBMC cells assessed as inhibition in stimulated IL-1beta cytokine release incubated for 2 hrs in the presence of LPS/SEB/aCD28 by Luminex based sandwich immunoassay. The format is functional, cell-based.
The subject of data set [9] is Mus musculus. The data set can be described thus: In vivo anti-inflammatory activity in Gal/LPS induced mouse assessed as TNF-alpha release at 3 mg/kg, po administered for 1 hrs. The format is functional.
The target of data set [10] is Serine/threonine-protein kinase Chk2 (Homo sapiens) (UniProt O96017). Kind of data set: Inhibition of CHEK2 (unknown origin) assessed as remaining activity at 1 uM by Kinome scan method relative to control.
The target in data set [11] is CYP2C9 (Homo sapiens, UniProt P11712). The data set can be described thus: Inhibition of CYP2C9 (unknown origin) at 10 uM relative to control. The format is ADME.
Data set [12] concerns the target Dual serine/threonine and tyrosine protein kinase (Homo sapiens) (UniProt Q6XUX3). The data set can be described thus: Inhibition of human RIPK5 assessed as residual activity at 1 uM using RBER-CHKtide as substrate in presence of 33P-ATP by ProQinase assay relative to control.
In data set [13] the target is Rhodopsin kinase GRK7 (Homo sapiens) (UniProt Q8WTQ7). The data set can be described thus: Inhibition of human GRK7 assessed as residual activity at 1 uM using casein as substrate in presence of 33P-ATP by ProQinase assay relative to control.
Data set [14] addresses 5'-AMP-activated protein kinase catalytic subunit alpha-1 (Homo sapiens) (UniProt Q13131). Kind of data set: Inhibition of AMPK-alpha1 (unknown origin) assessed as remaining activity at 1 uM by Kinome scan method relative to control.
Data set [15] deals with Tyrosine-protein kinase Mer (Homo sapiens) (UniProt Q12866). Kind of data set: Inhibition of human MERTK assessed as residual activity at 1 uM using polyEY as substrate in presence of 33P-ATP by ProQinase assay relative to control.
Data set [16] has as its target T2, Aurora kinase C (Homo sapiens) (UniProt Q9UQB9).
T2 sequence (whole entry): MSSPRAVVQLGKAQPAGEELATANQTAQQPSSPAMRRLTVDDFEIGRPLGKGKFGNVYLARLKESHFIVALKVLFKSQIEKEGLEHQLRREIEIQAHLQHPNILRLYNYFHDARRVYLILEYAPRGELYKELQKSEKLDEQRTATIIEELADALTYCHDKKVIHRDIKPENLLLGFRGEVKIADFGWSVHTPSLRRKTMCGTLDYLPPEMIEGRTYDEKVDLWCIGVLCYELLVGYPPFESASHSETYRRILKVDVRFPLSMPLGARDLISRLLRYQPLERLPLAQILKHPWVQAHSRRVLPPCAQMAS
Kind of data set: Inhibition of human AuroraC assessed as residual activity at 1 uM using bio-4xCHKT as substrate in presence of 33P-ATP by ProQinase assay relative to control.

Data set [17] addresses Rhodopsin kinase GRK7 (Homo sapiens) (UniProt Q8WTQ7). Kind of data set: Inhibition of GRK7 (unknown origin) assessed as remaining activity at 1 uM by Kinome scan method relative to control.
In data set [18] the test system is Serine/threonine-protein kinase B-raf (Homo sapiens), P15056 [V600E]. The data set can be described thus: Inhibition of human BRAF V600E mutant assessed as residual activity at 1 uM using MEK1-K97M as substrate in presence of 33P-ATP by ProQinase assay relative to control.
The test system of data set [19] is Epidermal growth factor receptor (Homo sapiens), P00533 [UNDEFINED MUTATION]. The data set can be described thus: Inhibition of human EGFR d747-752/P753S mutant assessed as residual activity at 1 uM using PolyEY as substrate in presence of 33P-ATP by ProQinase assay relative to control.
Data set [20] addresses RAC-alpha serine/threonine-protein kinase (Homo sapiens) (UniProt P31749). Kind of data set: Inhibition of human AKT1 assessed as residual activity at 1 uM using RBER-GSK3(14-27) as substrate in presence of 33P-ATP by ProQinase assay relative to control.

Molecules are shown by their SMILES.

Sequence of Rhodopsin kinase GRK7 (Homo sapiens) (Q8WTQ7 whole entry): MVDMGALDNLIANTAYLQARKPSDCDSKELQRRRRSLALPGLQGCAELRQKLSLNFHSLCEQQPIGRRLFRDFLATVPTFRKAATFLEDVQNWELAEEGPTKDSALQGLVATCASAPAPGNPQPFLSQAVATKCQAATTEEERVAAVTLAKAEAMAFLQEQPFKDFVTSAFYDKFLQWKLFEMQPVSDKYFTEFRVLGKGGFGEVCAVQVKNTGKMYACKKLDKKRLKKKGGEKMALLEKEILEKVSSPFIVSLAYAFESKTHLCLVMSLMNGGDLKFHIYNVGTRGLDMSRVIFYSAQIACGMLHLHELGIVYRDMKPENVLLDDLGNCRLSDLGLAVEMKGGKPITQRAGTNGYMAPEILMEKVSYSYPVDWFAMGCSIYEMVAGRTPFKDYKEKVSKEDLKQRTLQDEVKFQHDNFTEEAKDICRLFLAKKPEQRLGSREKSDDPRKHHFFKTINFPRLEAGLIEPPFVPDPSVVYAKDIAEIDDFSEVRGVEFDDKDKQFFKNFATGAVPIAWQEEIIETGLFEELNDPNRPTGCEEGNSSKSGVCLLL
Sequence of Serine/threonine-protein kinase B-raf (Homo sapiens), P15056 [V600E] (P15056 whole entry V600E): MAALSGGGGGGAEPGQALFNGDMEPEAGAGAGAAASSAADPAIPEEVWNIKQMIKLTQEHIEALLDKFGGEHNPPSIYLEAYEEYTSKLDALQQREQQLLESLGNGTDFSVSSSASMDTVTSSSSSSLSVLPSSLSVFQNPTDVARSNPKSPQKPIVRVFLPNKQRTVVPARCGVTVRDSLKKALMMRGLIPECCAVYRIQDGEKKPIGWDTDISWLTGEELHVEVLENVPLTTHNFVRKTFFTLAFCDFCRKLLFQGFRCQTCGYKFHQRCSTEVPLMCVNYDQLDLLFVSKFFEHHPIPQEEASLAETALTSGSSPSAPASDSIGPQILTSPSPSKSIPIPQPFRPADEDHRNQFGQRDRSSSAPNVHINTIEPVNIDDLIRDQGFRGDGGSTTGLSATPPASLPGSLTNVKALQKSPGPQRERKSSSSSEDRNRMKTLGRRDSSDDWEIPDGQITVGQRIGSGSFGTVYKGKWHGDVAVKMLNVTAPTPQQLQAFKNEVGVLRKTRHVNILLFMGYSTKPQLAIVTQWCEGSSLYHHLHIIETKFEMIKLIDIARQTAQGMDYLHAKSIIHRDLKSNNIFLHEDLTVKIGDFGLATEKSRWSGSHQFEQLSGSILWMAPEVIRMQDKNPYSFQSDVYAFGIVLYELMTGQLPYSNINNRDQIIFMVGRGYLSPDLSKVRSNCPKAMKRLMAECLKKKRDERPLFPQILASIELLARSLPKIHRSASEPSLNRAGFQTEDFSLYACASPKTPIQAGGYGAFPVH
Sequence of Mitogen-activated protein kinase kinase kinase 5 (Homo sapiens) (Q99683 whole entry): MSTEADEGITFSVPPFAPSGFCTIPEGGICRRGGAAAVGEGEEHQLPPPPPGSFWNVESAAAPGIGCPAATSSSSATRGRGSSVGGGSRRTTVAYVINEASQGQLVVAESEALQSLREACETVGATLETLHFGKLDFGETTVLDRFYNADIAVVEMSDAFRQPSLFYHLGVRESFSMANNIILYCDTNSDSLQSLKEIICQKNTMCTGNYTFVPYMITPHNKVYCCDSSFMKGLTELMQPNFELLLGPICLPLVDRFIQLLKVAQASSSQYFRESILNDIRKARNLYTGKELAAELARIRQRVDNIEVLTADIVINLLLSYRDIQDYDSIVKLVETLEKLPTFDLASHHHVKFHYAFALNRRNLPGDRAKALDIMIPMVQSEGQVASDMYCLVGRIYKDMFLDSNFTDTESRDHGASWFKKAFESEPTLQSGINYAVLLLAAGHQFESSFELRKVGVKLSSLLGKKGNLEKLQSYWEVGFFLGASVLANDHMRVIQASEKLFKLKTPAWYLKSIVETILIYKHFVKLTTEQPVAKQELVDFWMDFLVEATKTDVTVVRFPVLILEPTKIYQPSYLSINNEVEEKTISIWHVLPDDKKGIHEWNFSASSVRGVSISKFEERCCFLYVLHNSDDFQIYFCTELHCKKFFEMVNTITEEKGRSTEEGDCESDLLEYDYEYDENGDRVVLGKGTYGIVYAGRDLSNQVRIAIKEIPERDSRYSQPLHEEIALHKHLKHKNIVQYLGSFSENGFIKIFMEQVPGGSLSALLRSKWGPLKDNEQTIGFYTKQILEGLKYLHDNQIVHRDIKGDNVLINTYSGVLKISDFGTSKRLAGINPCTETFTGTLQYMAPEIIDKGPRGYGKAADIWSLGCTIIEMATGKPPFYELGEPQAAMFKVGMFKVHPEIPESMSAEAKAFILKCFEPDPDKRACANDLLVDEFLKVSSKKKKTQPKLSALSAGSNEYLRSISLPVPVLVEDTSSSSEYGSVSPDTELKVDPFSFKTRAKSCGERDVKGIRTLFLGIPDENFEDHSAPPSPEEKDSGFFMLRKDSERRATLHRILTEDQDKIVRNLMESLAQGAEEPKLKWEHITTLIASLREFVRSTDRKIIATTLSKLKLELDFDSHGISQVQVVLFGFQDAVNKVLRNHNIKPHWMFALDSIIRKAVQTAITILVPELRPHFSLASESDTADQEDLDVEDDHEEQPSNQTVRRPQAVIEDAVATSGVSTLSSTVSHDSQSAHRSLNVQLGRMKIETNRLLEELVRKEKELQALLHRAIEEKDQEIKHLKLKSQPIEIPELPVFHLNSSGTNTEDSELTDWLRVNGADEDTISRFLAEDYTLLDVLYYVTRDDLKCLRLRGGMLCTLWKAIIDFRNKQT
Sequence of Tyrosine-protein kinase Mer (Homo sapiens) (Q12866 whole entry): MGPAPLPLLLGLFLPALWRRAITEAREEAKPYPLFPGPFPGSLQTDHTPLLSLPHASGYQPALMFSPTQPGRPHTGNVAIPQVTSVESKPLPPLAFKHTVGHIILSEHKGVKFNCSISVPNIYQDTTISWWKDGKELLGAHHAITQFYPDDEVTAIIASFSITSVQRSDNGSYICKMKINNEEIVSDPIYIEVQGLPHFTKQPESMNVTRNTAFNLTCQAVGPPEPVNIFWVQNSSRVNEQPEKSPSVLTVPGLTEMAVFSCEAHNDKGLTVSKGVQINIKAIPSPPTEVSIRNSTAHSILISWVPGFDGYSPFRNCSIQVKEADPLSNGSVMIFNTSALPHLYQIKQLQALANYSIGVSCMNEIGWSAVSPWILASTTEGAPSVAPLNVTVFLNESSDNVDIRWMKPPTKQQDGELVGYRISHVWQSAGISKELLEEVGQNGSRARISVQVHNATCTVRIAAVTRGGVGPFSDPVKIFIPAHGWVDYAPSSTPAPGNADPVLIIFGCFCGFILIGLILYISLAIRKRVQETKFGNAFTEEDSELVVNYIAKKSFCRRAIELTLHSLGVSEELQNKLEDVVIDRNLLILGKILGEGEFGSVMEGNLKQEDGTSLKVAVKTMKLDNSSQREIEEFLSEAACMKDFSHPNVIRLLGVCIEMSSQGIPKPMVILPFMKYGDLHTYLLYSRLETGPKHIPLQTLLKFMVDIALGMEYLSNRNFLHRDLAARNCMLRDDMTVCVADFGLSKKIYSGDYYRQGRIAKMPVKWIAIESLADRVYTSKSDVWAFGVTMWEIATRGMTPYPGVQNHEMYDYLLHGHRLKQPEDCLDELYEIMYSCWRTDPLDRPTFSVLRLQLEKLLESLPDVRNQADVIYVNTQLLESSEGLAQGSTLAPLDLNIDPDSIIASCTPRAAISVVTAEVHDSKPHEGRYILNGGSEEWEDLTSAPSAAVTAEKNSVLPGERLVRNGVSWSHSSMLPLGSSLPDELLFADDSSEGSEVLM
Sequence of Eukaryotic translation initiation factor 2-alpha kinase 1 (Homo sapiens) (Q9BQI3 whole entry): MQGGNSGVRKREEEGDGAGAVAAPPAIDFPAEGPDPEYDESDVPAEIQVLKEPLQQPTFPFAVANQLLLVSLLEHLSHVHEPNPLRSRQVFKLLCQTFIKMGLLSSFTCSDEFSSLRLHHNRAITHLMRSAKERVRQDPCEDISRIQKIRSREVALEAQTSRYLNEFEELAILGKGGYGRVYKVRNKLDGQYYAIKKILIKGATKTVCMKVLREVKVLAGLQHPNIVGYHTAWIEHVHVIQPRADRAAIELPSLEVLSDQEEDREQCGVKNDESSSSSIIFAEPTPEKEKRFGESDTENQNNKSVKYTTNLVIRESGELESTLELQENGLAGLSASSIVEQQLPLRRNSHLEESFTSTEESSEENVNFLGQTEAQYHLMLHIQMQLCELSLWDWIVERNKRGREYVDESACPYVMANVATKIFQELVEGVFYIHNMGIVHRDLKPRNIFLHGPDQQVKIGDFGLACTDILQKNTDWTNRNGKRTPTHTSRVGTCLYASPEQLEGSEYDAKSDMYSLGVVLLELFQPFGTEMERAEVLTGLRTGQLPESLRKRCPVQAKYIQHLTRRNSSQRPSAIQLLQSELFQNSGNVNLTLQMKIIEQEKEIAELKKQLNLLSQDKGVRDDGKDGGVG
Sequence of RAC-alpha serine/threonine-protein kinase (Homo sapiens) (P31749 whole entry): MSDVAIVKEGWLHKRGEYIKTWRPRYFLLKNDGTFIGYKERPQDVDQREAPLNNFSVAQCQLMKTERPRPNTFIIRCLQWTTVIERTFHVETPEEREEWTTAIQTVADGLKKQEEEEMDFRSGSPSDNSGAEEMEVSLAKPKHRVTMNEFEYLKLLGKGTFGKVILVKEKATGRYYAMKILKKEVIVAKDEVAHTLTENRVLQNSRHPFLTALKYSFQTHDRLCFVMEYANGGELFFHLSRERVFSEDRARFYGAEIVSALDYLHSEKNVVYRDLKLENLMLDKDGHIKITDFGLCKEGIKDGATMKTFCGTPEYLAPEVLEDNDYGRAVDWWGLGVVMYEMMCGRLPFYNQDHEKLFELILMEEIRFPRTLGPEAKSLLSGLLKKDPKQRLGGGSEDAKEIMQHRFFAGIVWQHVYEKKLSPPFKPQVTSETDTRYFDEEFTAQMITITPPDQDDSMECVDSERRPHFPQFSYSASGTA

For the molecule `O=C1c2ccc(Nc3ccc(F)cc3F)cc2CCc2ccc(OC[C@H](O)CO)cc21` [Skepinone-L], the Activity in data set [1] worked out at 93%; in [2], 106%; in data set [3], 100%; in data set [4], 103%; in data set [5] it was 99%; in data set [6] it was 106%. In addition, the Activity in [7] turned out to be 77%; in data set [9] it was 36.3 pg/mL; in [10], 100%; in [12] it was 95%; in [13] it was 107%; in data set [14] it was 98%. Also, the Activity in data set [15] was 98%; in data set [16] it was 85%; in data set [17], 100%; in data set [18], 135%; in data set [19], 93%; in data set [20], 102%. The IC50 in data set [8] is 0.03 µM. Besides, in [11], the inhibition at 10 µM came out at 65%.
